Data taken from ChEMBL document CHEMBL5260804 (ACS Med Chem Lett, 2017).

Tests used:
Influenza A virus = test: Antiviral activity against amantadine-sensitive influenza A virus A/WSN/33-M2-N31S (H1N1) infected in MDCK cells assessed as inhibition of virus-induced cytopathic effect incubated for 48 hrs by crystal violet/neutral red staining based assay; assay type: functional, organism-based
Oocyte [1] = test: Inhibition of influenza A virus A/WSN/33-M2-N31S (H1N1) M2 transmembrane domain V28I mutant expressed in Xenopus laevis oocytes assessed as inhibition of channel current at 100 uM measured after 2 mins by two-electrode voltage clamp assay relative to control; assay type: cell-based
Oocyte [2] = test: Inhibition of influenza A virus A/WSN/33-M2-N31S (H1N1) M2 transmembrane domain V28I mutant expressed in Xenopus laevis oocytes assessed as inhibition of channel current at 100 uM measured after 5 mins by two-electrode voltage clamp assay relative to control; assay type: cell-based

Row | SMILES | IC50 (Influenza A virus) | inhibition (Oocyte [1]) | inhibition (Oocyte [2])
1 | C[C@H](N)C12CC3CC(CC(C3)C1)C2 | 20 nM | 78% | 92%
2 | CC(C)(N)C12CC3CC(CC(C3)C1)C2 | 30 nM | 56% | 80%
3 | NC12CC3CC(CC(C3)C1)C2 [AMANTADINE] | 480 nM |  | 
4 | CC(N)C12CC3CC(CC(C3)C1)C2 (racemic) [RIMANTADINE] | 40 nM | 84% | 93%
5 | C[C@@H](N)C12CC3CC(CC(C3)C1)C2 | 40 nM | 71% | 90%
